The values below come from patent publication US7094909B2, “HIV protease inhibitors, compositions containing the same, their pharmaceutical uses and materials for their synthesis” (priority 2001, dated 2006).

By EC50 is commonly meant the concentration that produces a half-maximal response. One may read the Ki as the equilibrium dissociation constant of an inhibitor or competing ligand from its target.

Read-outs that look alike come from different tables or passages of the source.

The test system of assay [1] is HIV-1 (HIV-1 RF, HIV-1 NL4-3) in CEM-SS / MT-2 cells. Description: Cytopathic effect (CPE) inhibition assay (XTT/MTT dye reduction). The assay is classed as cell-based. Here is the method: T-cell lines, CEM-SS, and MT-2, and viruses HIV-1 RF and HIV-1 NL4-3 (pNL4-3) were obtained from the National Institutes of Health (AIDS Research and Reference Reagent Program, Bethesda, Md.).
Cytopathic Effect (CPE) Inhibition Assays
The ability of compounds to protect cells against HIV infection was measured by the […] dye reduction method, essentially as described (See Pauwels, R. Balzarini, J. Baba, M. Snoeck, R. Schols, D. Herdewijn, P. Desmyter, J. and De Clercq, E. 1988, “Rapid and automated tetrazolium-based colorimetric assay for the detection of anti-HIV compounds,”. J Virol. Methods., 20: 309–321 and Weislow, O. S. Kiser, R. Fine, D. L. Bader, J. Shoemaker, R. H. and Boyd, M. R. 1989. “New soluble-formazan assay for HIV-1 cytopathic effects: application to high-flux screening of synthetic and natural products for AIDS-antiviral activity”. J. Natl. Cancer Inst. 81:577–586). Subject cells were infected with test virus at an moi of 0.025 to 0.819 or mock infected with medium only and added at 2×10^4 cells per well into 96 well plates containing half-log dilutions of test compounds. Six days later, 50 μl of XTT (1 mg/ml XTT tetrazolium, 0.02 nM phenazine methosulfate) was added to the wells and the plate was reincubated for four hours. Viability, as determined by the amount of XTT formazan produced, was quantified spectrophotometrically by absorbance at 450 nm. Data from CPE assays were expressed as the percent of formazan produced in compound-treated cells compared to formazan produced in wells of uninfected, compound-free cells. The fifty percent effective concentration (EC50) was calculated as the concentration of compound that effected an increase in the percentage of formazan production in infected, compound-treated cells to 50% of that produced by uninfected, compound-free cells. The 50% cytotoxicity concentration (CC50) was calculated as the concentration of compound that decreased the percentage of formazan produced in uninfected, compound-treated cells to 50% of that produced in uninfected, compound-free cells. The therapeutic index was calculated by dividing the cytotoxicity (CC50) by the antiviral activity (EC50).

Assay [2] addresses T1, HIV-1 protease (Q7S mutant form) (Human immunodeficiency virus type 1 group M subtype B, UniProt P04585, Q495S).
T1 construct: made in house
Put plainly: HIV-1 Protease RET assay. The assay is classed as biochemical. The gist of the method:
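Q7S HIV-1 protease, refolded from urea, 2 nM active dimer with 5 μM EDANS/DABCYL peptide cleaved at Tyr-Pro; fluorescence 340/490 nm. 12 min at 37 °C in 0.1M sodium acetate pH 4.8, 1M NaCl, 10% DMSO. Ki from Morrison tight-binding fit.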

The mark [3] stands for this setting: Human immunodeficiency virus 1, NL43, unit inferred, read-out: EC50.
Where [4] appears, read: Human immunodeficiency virus 1, NL43, read-out: Ave CPE EC50.
The mark [5] stands for this setting: Ave. Ki (nM), RET assay, Q7S enzyme, Morrison tight binding fit.

As for `Cc1ccccc1CNC(=O)[C@H]1N(C(=O)[C@@H](O)[C@H](Cc2ccccc2)NC(=O)OC(C)(C)C)CSC1(C)C`, the EC50 in assay [1] (setting [3]) worked out at 1290 nM. The compound also came in with a Ki in assay [2] (Ki, unit inferred) of 3 nM.
In the case of `Cc1ccccc1CNC(=O)C1N(C(=O)[C@@H](O)[C@H](CSc2ccccc2)NC(=O)c2cccc(O)c2C)CSC1(C)C` (stereo partly drawn) [drawing 934], the EC50 in assay [1] (unit inferred, read-out: EC50) stood at 27 nM. In addition, the Ki in assay [2] (Ki, unit inferred) was ≤ 0.1 nM.
In the case of `C=CCNC(=O)N[C@@H](Cc1ccccc1)[C@H](O)C(=O)N1CSC(C)(C)[C@H]1C(=O)NCc1ccccc1C` [Example B13, (R)-3-[(2S,3S)-3-(3-Allyl-ureido)-2-hydroxy-4-phenyl-butyryl]-5,5-dimethyl-thiazolidine-4-carboxylic acid 2-methyl-benzylamide], the EC50 in assay [1] (setting [4]) was found to be 1460 nM. Besides, in assay [2] (setting [5]), the Ki was 2 nM.
For `Cc1c(O)cccc1C(=O)N[C@@H](Cc1ccccc1)[C@H](O)C(=O)N1CSC(C)(C)[C@H]1C(=O)N[C@@H]1CCCc2occc21` [Example A47, 3-[2-Hydroxy-3-(3-hydroxy-2-methyl-benzoylamino)-4-phenyl-butyryl]-5,5-dimethyl-thiazolidine-4-carboxylic acid (4,5,6,7-tetrahydro-benzofuran-4-yl)-amide], in that order: 196 nM and 0.27 nM.
For `Cc1c(O)cccc1C(=O)N[C@@H](Cc1ccccc1)[C@H](O)C(=O)N1CSC(C)(C)[C@H]1C(=O)N1CCOCC1` [Example A30], in that order: 586 nM and 10.9 nM.
Turning to `CC1(C)SCN(C(=O)[C@@H](O)[C@H](Cc2ccccc2)NC(=O)[C@@H]2CCCO2)[C@@H]1C(=O)N[C@H]1CCOc2ccccc21`, in assay [1] (setting [3]), the EC50 was determined as 1250 nM. The same compound yielded a Ki in assay [2] (Ki, unit inferred) of 7.5 nM.
In the case of `Cc1ccccc1CNC(=O)[C@H]1N(C(=O)[C@@H](O)[C@H](Cc2ccccc2)NC(=O)c2cccc3[nH]ncc23)CSC1(C)C` [Example B9, 1H -Indazle-4-carboxylic acid {1-benzyl-3-[5,5-dimethyl-4-(2-methyl-benzylcarbamoyl)-thiazolidin-3-yl]-2-hydroxy-3-oxo-propyl}-amide], the concentration for a half-maximal effect (EC50) in assay [1] (setting [4]) was found to be 452 nM. This compound also returned a Ki in assay [2] (setting [5]) of 1.1 nM.
For `C#CCNC(=O)[C@H]1N(C(=O)[C@@H](O)[C@H](Cc2ccccc2)NC(=O)c2cccc3c2CCN3)CSC1(C)C` [Example B34, 2,3-Dihydro-1H-indole-4-carboxylic acid [(1S,2S)-1-benzyl-3-((R)-5,5-dimethyl-4-prop-2-ynylcarbamoyl-thiazoldin-3-yl)-2-hydroxy-3-oxo-propyl]-amide], in that order: 389 nM and 1.2 nM.
In the case of `CC1(C)SCN(C(=O)[C@@H](O)[C@H](Cc2ccccc2)NC(=O)CSc2nc[nH]n2)[C@@H]1C(=O)NCC#N`, the EC50 in assay [1] (setting [3]) was ≥ 3200 nM. Moreover, the Ki in assay [2] (Ki, unit inferred) is 28 nM.
Consider `C=CCOC(=O)N[C@@H](Cc1ccccc1)[C@H](O)C(=O)N1CSC(C)(C)[C@H]1C(=O)NCc1ccccc1Cl` [Example B47, {(1S,2S)-1-Benzyl-3-[(R)-4(2-chloro-benzylcarbamoyl)-5,5-dimethyl-thiazolidin-3-yl]-2-hydroxy-3-oxo-propyl}-carbamic acid allyl ester], for which, in assay [1] (setting [4]), the EC50 turned out to be 1480 nM. Moreover, the Ki in assay [2] (setting [5]) stood at 1.9 nM.
Regarding `Cc1c(O)cccc1C(=O)N[C@@H](Cc1ccccc1)[C@H](O)C(=O)N1CSC(C)(C)[C@H]1C(=O)NCc1cccc2ccccc12` [Example A11, (R)-3-((2S,3S)-2-Hydroxy-3-{[1-(3-hydroxy-2-methyl-phenyl)-methanoyl]-amino}-4-phenyl-butanoyl)-5,5-dimethyl-thiazolidine-4-carboxylic acid (naphthalen-1-ylmethyl)-amide], in assay [1] (setting [4]), the EC50 amounted to 144 nM. This compound had a Ki in assay [2] (setting [5]) of 0.5 nM.
For `Cc1ccccc1CNC(=O)[C@H]1N(C(=O)[C@@H](O)[C@H](Cc2ccccc2)NC(=O)CSc2nc[nH]n2)CSC1(C)C` [Example B4, 3-{2-Hydroxy-4-phenyl-3-[2-(2H-[1,2,4t]triazol-3-ylsufanyl)-ethanoylamino]-butanoyl}5,5-dimethyl-thiazolidine-4-carboxylic acid-2-methyl-benzylamide], in that order: 707 nM and 3 nM.
